pIC50: −log10 of the molar value.
Experiments:
HCoV-OC43 = tested on: T1, HCoV-OC43; test: microbe, parasite or virus in culture; set-up: HCoV-OC43 infection assay, reduction of viral infection; settings: Betacoronavirus 1, OC43, read-out: OC43
T1 construct: ATCC VR-1558

SARS-CoV-2 NSP7-HiBiT = settings: read-out: NSP7- HiBiT; reduction of NSP7-HiBiT signal; degrader

| Compound | pIC50 (HCoV-OC43) | pIC50 (SARS-CoV-2 NSP7-HiBiT) |
| --- | --- | --- |
| CCSc1nsc(NC(=O)Nc2ccccc2OC)n1 [BC24840, 3-(ethylthio)-5-[3-(o-methoxyphenyl)ureido]-1,2,4-thiadiazole] | 4.94 | < 4.00 |
| CCSc1nsc(NC(=O)Nc2cccc(OC)c2)n1 [BC24841, 3-(ethylthio)-5-[3-(m-methoxyphenyl)ureido]-1,2,4-thiadiazole] | 5.26 | 4.91 |
| CCSc1nsc(NC(=O)Nc2cccc(Cl)c2)n1 [BC24842, 5-[3-(m-chlorophenyl)ureido]-3-(ethylthio)-1,2,4-thiadiazole] | 5.81 | 5.67 |
| CCSc1nsc(NC(=O)Nc2ccccc2Cl)n1 [BC24843, 5-[3-(o-chlorophenyl)ureido]-3-(ethylthio)-1,2,4-thiadiazole] | 4.79 | 4.58 |
| CCSc1nsc(NC(=O)Nc2ccccc2)n1 [BC24844, 3-(ethylthio)-5-(3-phenylureido)-1,2,4-thiadiazole] | 5.04 | 5.03 |
| CCSc1nsc(NC(=O)Nc2ccccc2[N+](=O)[O-])n1 [BC24846, 3-(ethylthio)-5-[3-(o-nitrophenyl)ureido]-1,2,4-thiadiazole] | 4.94 | 4.61 |
| CCSc1nsc(NC(=O)Nc2cccc(C)c2C)n1 [BC24847, 3-(ethylthio)-5-[3-(2,3-xylyl)ureido]-1,2,4-thiadiazole] | 5.04 | 4.18 |
| CCSc1nsc(NC(=O)Nc2ccc(C)c(C)c2)n1 [BC24848, 3-(ethylthio)-5-[3-(3,4-xylyl)ureido]-1,2,4-thiadiazole] | 5.15 | 4.81 |
| CCSc1nsc(NC(=O)Nc2cc(C)ccc2C)n1 [BC24849, 3-(ethylthio)-5-[3-(2,5-xylyl)ureido]-1,2,4-thiadiazole] | 5.27 | 4.89 |
| CCSc1nsc(NC(=O)Nc2cc(F)cc(F)c2)n1 [BC24850, 5-[3-(3,5-difluorophenyl)ureido]-3-(ethylthio)-1,2,4-thiadiazole] | 5.91 | 5.53 |
| CCSc1nsc(NC(=O)Nc2ccc(C)cc2Cl)n1 [BC24851, 5-[3-(2-chloro-4-tolyl)ureido]-3-(ethylthio)-1,2,4-thiadiazole] | 4.76 | < 4.00 |
| CCSc1nsc(NC(=O)Nc2ccc(Cl)c(C(F)(F)F)c2)n1 [BC24852, 5-{3-[4-chloro-3-(trifluoromethyl)phenyl]ureido}-3-(ethylthio)-1,2,4-thiadiazole] | 6.04 | 5.56 |
| CCSc1nsc(NC(=O)Nc2cc(OC)ccc2OC)n1 [BC24853, 5-[3-(2,5-dimethoxyphenyl)ureido]-3-(ethylthio)-1,2,4-thiadiazole] | 5.01 | < 4.00 |
| CCSc1nsc(NC(=O)Nc2ccc(C)cc2)n1 [BC24854, 3-(ethylthio)-5-[3-(p-tolyl)ureido]-1,2,4-thiadiazole] | 4.57 | 4.35 |
| CCSc1nsc(NC(=O)Nc2ccccc2C)n1 [BC24855, 3-(ethylthio)-5-[3-(o-tolyl)ureido]-1,2,4-thiadiazole] | 5.08 | 4.45 |
| CCSc1nsc(NC(=O)Nc2ccc(F)c(Cl)c2)n1 [BC24856, 5-[3-(3-chloro-4-fluorophenyl)ureido]-3-(ethylthio)-1,2,4-thiadiazole] | 5.85 | 4.93 |
| CCSc1nsc(NC(=O)Nc2ccc(OC)cc2)n1 [BC24857, 3-(ethylthio)-5-[3-(p-methoxyphenyl)ureido]-1,2,4-thiadiazole] | 4.05 | < 4.00 |
| CCOc1ccccc1NC(=O)Nc1nc(SCC)ns1 [BC24858, 5-[3-(o-ethoxyphenyl)ureido]-3-(ethylthio)-1,2,4-thiadiazole] | 4.61 | < 4.00 |

| Compound | pIC50 (HCoV-OC43) | pIC50 (SARS-CoV-2 NSP7-HiBiT) |
| --- | --- | --- |
| CCOc1ccc(NC(=O)Nc2nc(SCC)ns2)cc1 [BC24859, 5-[3-(p-ethoxyphenyl)ureido]-3-(ethylthio)-1,2,4-thiadiazole] | 4.28 | < 4.00 |
| CCSc1nsc(NC(=O)Nc2cccc(Br)c2)n1 [BC24860, 5-[3-(m-bromophenyl)ureido]-3-(ethylthio)-1,2,4-thiadiazole] | 5.93 | 5.93 |
| CCSc1nsc(NC(=O)Nc2cccc(Cl)c2C)n1 [BC24862, 5-[3-(3-chloro-2-tolyl)ureido]-3-(ethylthio)-1,2,4-thiadiazole] | 5.25 | 5.16 |
| CCSc1nsc(NC(=O)Nc2cccc(C)c2)n1 [BC24863, 3-(ethylthio)-5-[3-(m-tolyl)ureido]-1,2,4-thiadiazole] | 5.69 | 5.29 |
| CCSc1nsc(NC(=O)Nc2ccccc2CC)n1 [BC24864, 5-[3-(o-ethylphenyl)ureido]-3-(ethylthio)-1,2,4-thiadiazole] | 4.20 | 4.32 |
| CCOC(=O)Cc1ccc(NC(=O)Nc2nc(SCC)ns2)cc1 [BC24865, ethyl (p-{3-[3-(ethylthio)-1,2,4-thiadiazol-5-yl]ureido}phenyl)acetate] | 4.97 | 4.56 |
| CCSc1nsc(NC(=O)Nc2ccccc2C(F)(F)F)n1 [BC24866, 3-(ethylthio)-5-{3-[o-(trifluoromethyl)phenyl]ureido}-1,2,4-thiadiazole] | 4.91 | 4.73 |
| CCSc1nsc(NC(=O)Nc2ccc(C)cc2C)n1 [BC24867, 3-(ethylthio)-5-[3-(2,4-xylyl)ureido]-1,2,4-thiadiazole] | 4.89 | < 4.00 |
| CCOC(=O)CNC(=O)Nc1nc(SCC)ns1 [BC24868, ethyl {3-[3-(ethylthio)-1,2,4-thiadiazol-5-yl]ureido}acetate] | < 4.00 | < 4.00 |
| CCSc1nsc(NC(=O)NCCCOC)n1 [BC24869, 3-(ethylthio)-5-[3-(3-methoxypropyl)ureido]-1,2,4-thiadiazole] | 4.25 | < 4.00 |
| CCSc1nsc(NC(=O)Nc2ccc(F)cc2)n1 [BC24870, 3-(ethylthio)-5-[3-(p-fluorophenyl)ureido]-1,2,4-thiadiazole] | 5.00 | 4.77 |
| CCOC(=O)C[C@H](NC(=O)Nc1nc(SCC)ns1)c1ccccc1 [BC24871, ethyl (S)-3-{3-[3-(ethylthio)-1,2,4-thiadiazol-5-yl]ureido}-3-phenylpropionate] | 4.64 | < 4.00 |
| CCSc1nsc(NC(=O)NC2CCCC2)n1 [BC24872, 5-(3-cyclopentylureido)-3-(ethylthio)-1,2,4-thiadiazole] | 4.51 | < 4.00 |
| CCSc1nsc(NC(=O)Nc2ccc(C)c(F)c2)n1 [BC24873, 3-(ethylthio)-5-[3-(3-fluoro-4-tolyl)ureido]-1,2,4-thiadiazole] | 5.11 | 5.07 |
| CCSc1nsc(NC(=O)NCCC(=O)OC)n1 [BC24874, methyl 3-{3-[3-(ethylthio)-1,2,4-thiadiazol-5-yl]ureido}propionate] | 4.07 | < 4.00 |
| CCOCCCNC(=O)Nc1nc(SCC)ns1 [BC24875, 5-[3-(3-ethoxypropyl)ureido]-3-(ethylthio)-1,2,4-thiadiazole] | < 4.00 | < 4.00 |
| CCSc1nsc(NC(=O)Nc2cc(F)ccc2F)n1 [BC24876, 5-[3-(2,5-difluorophenyl)ureido]-3-(ethylthio)-1,2,4-thiadiazole] | 5.26 | 4.71 |
| CCSc1nsc(NC(=O)Nc2cccc(C(F)(F)F)c2)n1 [BC24877] | 6.13 | 6.05 |
